This is an account of results in EP0068563A2, “Heterocyclic acetic acid compounds and compositions for treating bone diseases” (THE PROCTER & GAMBLE COMPANY, priority 1981, dated 1983).

For one test, the system named is Fetal rat bone. The experiment in a line: PGE2 stimulated in vitro bone resorption in the fetal long bone system (45Ca release). The format is cell-based. Conditions: versus control cultures; for inhibition at 390 µM: concentration 0.39 mM; for inhibition at 1560 µM: concentration 1.56 mM. On the procedure: Fetal rat bone was cultured in the medium described in this reference. Bone resorption was stimulated by addition of prostaglandin, PGE2, and measured by the release of previously incorporated ^45Ca into the medium and by changes in the total bone calcium content.
PGE2 Stimulated Bone Resorption in the Fetal Long Bone System

For test [1], the system named is Weanling male Sprague-Dawley derived rats. The test can be described thus: in vivo periosteal and endosteal bone apposition rates and endosteal resorption rates (tetracycline/DCAF double label, tibial sections). Set-up: EBAR (endosteal bone apposition rate) / ERR (endosteal resorption rate): unit not given here. Conditions: for ERR (endosteal resorption rate) / EBAR (endosteal bone apposition rate) / P BAR (periosteal bone apposition rate): subcutaneous daily, 10 days, rat tibia; for ERR (endosteal resorption rate): control 3.6; for EBAR (endosteal bone apposition rate): control 4.0; for P BAR (periosteal bone apposition rate): control 14.7. The text has this: The following test was used to establish in vivo periosteal and endosteal bone apposition rates and endosteal resorption rates. The test method is a modification of the method of Baylink, et al., J. Clin. Invest.
Weanling male Sprague-Dawley derived rats weighing 50-60 grams (Charles River Breeding Labs, Wilmington, Massachusetts) were allowed 2-3 days to adapt to the laboratory environment before receiving any treatment. Throughout the adaptation and experimental periods the animals were allowed free access to tap water and food (Purina Lab Rat Chow, Ralston Purina Company, St. Louis, Missouri).
On the first day of the experiment all animals were given a subcutaneous injection of tetracycline hydrochloride at a dose of 20 mg/kg to label the skeleton. Test compound and saline (control animals) treatments were also started on the first day of the experiment. They were given subcutaneously under skin flap where the rear legs join the body using alternating sides each day. Since these animals were rapidly growing, body weights were taken daily and dosage adjusted accordingly.
Seven days after the animals received tetracycline they were given a subcutaneous injection of (2,4 bis)N-N'-di (carboxymethyl)amino methylfluorescein (DCAF) at a dose of 20 mg/kg to provide a second skeletal label.
Ten days after treatments were initiated, the animals were sacrificed by carbon dioxide asphyxiation and their left and right tibias and femurs taken and placed in 70% ethanol until they were further processed.
The test comoounds were given as solutions preoared in distilled water, and the pH was adjusted to 7.4. Solution concentrations were adjusted so that constant volumes of 0.2 ml/100 grams of body weight could be maintained for all animals.
Dose volumes were […] of body weight.
DCAF, (2,4-bis)-N,N'di(carboxymethyl) amino methyl fluorescein, Nutritional Biochemicals Corporation, Cleveland, Ohio was given as a 1% solution in 2% sodium bicarbonate and 0.8% dextrose. This solution was filtered prior to administration to remove any undissolved particles. Dose volumes of the DCAF solution were 0.2 ml/100 grams of body weight.
The left tibiae were blocked stained with Villanueva's stain, embedded in methyl methacrylate and sectioned at 75-100 u. Cross sections were prepared from the shaft of the tibia where it is joined by the distal portion of the fibula.
These parameters were measured in tibial cross sections and in longitudinal sections through the proximal tibial epiphysis with a 5 mm micrometer which was superimposed optically over the section by placing it in the eyepiece of a microscope. Conversion of the values obtained to actual widths was established with a stage micrometer.
The width between fluorescent labels on the periosteal surface was established at 100x by making 4 measurements at 90. degree intervals around the circumference of the labeled area. Measurements were made from the middle of one label to the middle of' the next. A mean value was then established for each surface and multiplied times the conversion factor to obtain the actual distance in microns. Bone apposition rates were then calculated by dividing this value by the number of days over which the fluorescent labels were given (i.e. 7 days).
Endosteal bone apposition was established at 100x by making 4 measurements at equidistant points across the section from the bottom of the plate to the closest fluorescent label (the last label administered). A mean value was then established and multiplied times a conversion factor to obtain the actual distance in microns.
A mean value was then established and multiplied times a conversion factor to obtain the actual distance in microns. Bone resorption rates were calculated by dividing this value by number of days over which the experiment was conducted (i.e. 10 days).

The structures appear in SMILES notation.

For `COc1ccc2[nH]c(C(=O)O)cc2c1` [5-Methoxyindole-2-Carboxylic Acid], in the test with Fetal rat bone, the inhibition (usually the relative decrease from the control value, in per cent) at 390 µM was determined as 47.5% and the inhibition at 1560 µM came out at 80.1%.

As to `O=C(O)c1cccs1` [Thiophene-2-Carboxylic Acid, reference compound], in the test with Fetal rat bone, the inhibition at 390 µM came out at 43% and the inhibition at 1560 µM came out at 47.8%.

In the case of `O=C(O)Cc1cc2ccccc2s1` [BTAA, benzothiophene-2-acetic acid], in test [1] (dose 5 uM), the “ERR (endosteal resorption rate)” value was 1.2, the “EBAR (endosteal bone apposition rate)” value was determined as 3.5 and the “P BAR (periosteal bone apposition rate)” value amounted to 16.0. For the same compound, in test [1] (dose 16 uM), the “ERR (endosteal resorption rate)” value is 0.9, the “EBAR (endosteal bone apposition rate)” value was found to be 3.9 and the “P BAR (periosteal bone apposition rate)” value was found to be 18.1.

With `O=P(O)(O)C(Cl)(Cl)P(=O)(O)O` [Cl2MDP, dichloro-methylene-diphosphonate], in test [1] (dose 16 uM), the “ERR (endosteal resorption rate)” value is recorded as 1.3, the “EBAR (endosteal bone apposition rate)” value is reported as 3.2 and the “P BAR (periosteal bone apposition rate)” value is listed as 14.8. In test [1] (dose 80 uM), the “ERR (endosteal resorption rate)” value stood at 0, the “EBAR (endosteal bone apposition rate)” value worked out at 3.1 and the “P BAR (periosteal bone apposition rate)” value is listed as 14.8.

Turning to `O=C(O)c1cc2ccccc2s1` [BTCA, benzothiophene-2-carboxylic acid], in test [1] (dose 5 uM), the “ERR (endosteal resorption rate)” value is given as 2.9, the “EBAR (endosteal bone apposition rate)” value turned out to be 3.5 and the “P BAR (periosteal bone apposition rate)” value stood at 18.2. Further, in test [1] (dose 16 uM), the “ERR (endosteal resorption rate)” value worked out at 3.3, the “EBAR (endosteal bone apposition rate)” value is listed as 3.4 and the “P BAR (periosteal bone apposition rate)” value was 16.2. Further, the “bone resorption (conclusion in words)” value in test [1] (summary of the rat test table) was “does not significantly reduce bone resorption”.

As to `O=C(O)Cc1cccs1` [Thiophene-2-Acetic Acid], in the test with Fetal rat bone, the inhibition at 390 µM is 47.8% and the inhibition at 1560 µM is 107%.

`O=C(O)Cc1nc2ccccc2[nH]1` [BMZAA, benzimidazole-2-acetic acid]: in test [1] (dose 5 uM), the “ERR (endosteal resorption rate)” value worked out at 1.0, the “EBAR (endosteal bone apposition rate)” value stood at 3.8 and the “P BAR (periosteal bone apposition rate)” value was 15.5. In test [1] (dose 16 uM), the “ERR (endosteal resorption rate)” value is listed as 1.5, the “EBAR (endosteal bone apposition rate)” value is listed as 3.4 and the “P BAR (periosteal bone apposition rate)” value was 18.1.
